# Measured values: PMC7670682 (BMC Pharmacology & Toxicology, 2020)
# Entries after “also recorded” stand apart in the source; their conditions may differ. Where two headings read alike, the source gives them in different places. Marks after values point to notes of the source that are not given here.
# Assays:
# OATP-B = test system: OATP-B; set-up: method as in PMID 16415120; details: cited from earlier work
# [1] = cited from earlier work
# [2] = combined use with St. John’s wort, a CYP3A4 inducer; cited from earlier work
# in vivo = details: male, Sprague Dawley, rat, po, 30 mg/kg
# CYP3A = details: in vitro, different CYP3A substrates; read-out: IC50 of CYP3A inhibition; cited from earlier work
# [3] = after oral administration of imatinib; cited from earlier work
# [4] = intragastric administration of green tea, rats
# [5] = male, Sprague Dawley, rat, in vivo, po, 30 mg/kg
# [6] = metabolite, rats, imatinib 30 mg/kg IG + KTZ 75 mg/kg/day 3 days
# [7] = metabolite, rats, imatinib 30 mg/kg IG + h-GS 100 mg/kg/day 21 days
# [8] = metabolite, rats, imatinib 30 mg/kg IG + h-GS 100 mg/kg/day 21 days, vs imatinib only
# [9] = metabolite, rats, imatinib 30 mg/kg IG + h-GS 100 mg/kg/day 21 days, vs l-GS group
# [10] = metabolite, rats, imatinib 30 mg/kg IG + h-GS 100 mg/kg/day 21 days, when GS dose was doubled
# [11] = metabolite, rats, imatinib 30 mg/kg IG + h-GS and h-GT 100 mg/kg/day each 21 days
# [12] = metabolite, rats, imatinib 30 mg/kg IG + h-GS and h-GT 100 mg/kg/day each 21 days, vs imatinib only
# [13] = metabolite, rats, imatinib 30 mg/kg IG + h-GS and h-GT 100 mg/kg/day each 21 days, vs l-GS and l-GT group
# [14] = metabolite, rats, imatinib 30 mg/kg IG + h-GT 100 mg/kg/day 21 days
# [15] = metabolite, rats, imatinib 30 mg/kg IG + l-GS 50 mg/kg/day 21 days
# [16] = metabolite, rats, imatinib 30 mg/kg IG + l-GT 50 mg/kg/day 21 days
# [17] = metabolite, rats, imatinib 30 mg/kg IG only (control)
# [18] = rats, imatinib 30 mg/kg IG + KTZ 75 mg/kg/day 3 days
# [19] = rats, imatinib 30 mg/kg IG + h-GS 100 mg/kg/day 21 days
# [20] = rats, imatinib 30 mg/kg IG + h-GS and h-GT 100 mg/kg/day each 21 days
# [21] = rats, imatinib 30 mg/kg IG + h-GT 100 mg/kg/day 21 days
# [22] = rats, imatinib 30 mg/kg IG + l-GS 50 mg/kg/day 21 days
# [23] = rats, imatinib 30 mg/kg IG + l-GS and l-GT 50 mg/kg/day each 21 days
# [24] = rats, imatinib 30 mg/kg IG + l-GT 50 mg/kg/day 21 days
# [25] = rats, imatinib 30 mg/kg IG only (control)
compound,measurement,setting,value
Oc1cc(O)c2c(c1)O[C@H](c1ccc(O)c(O)c1)[C@@H](O)C2 [(+)-catechin],inhibition of estrone-3-sulfate uptake,OATP-B; concentration of 100 mM,31.7%
"Oc1cc(O)c2c(c1)O[C@H](c1ccc(O)c(O)c1)[C@H](O)C2 [EC, (−)-epicatechin]",bioavailability,[1]; [4],31.2%
same,inhibition of estrone-3-sulfate uptake,OATP-B; concentration of 10 mM,27.2%
"Oc1cc(O)c2c(c1)O[C@H](c1cc(O)c(O)c(O)c1)[C@H](O)C2 [EGC, (−)-epigallocatechin]",bioavailability,"[1]; rat, in vivo, po",13.7%
same,inhibition of estrone-3-sulfate uptake,OATP-B; concentration of 100 mM,29.1%
"O=C(O[C@@H]1Cc2c(O)cc(O)cc2O[C@@H]1c1cc(O)c(O)c(O)c1)c1cc(O)c(O)c(O)c1 [EGCG, (−)-epigallocatechin-3-gallate]",bioavailability,[1]; [4],0.1%
same,inhibition of estrone-3-sulfate uptake,OATP-B; concentration of 10 mM,29.5%
"Cc1ccc(NC(=O)c2ccc(CN3CCN(C)CC3)cc2)cc1Nc1nccc(-c2cccnc2)n1 [Imatinib, reference compound]",reduction of the area under the curve (AUC),[2],30%
same,AUC0∞,[5],"105,160.8 ± 75,643.2 ng^.h/mL"
same,tmax,[5],4.8 ± 2.3 h
same,decrease in t0.5,"rats, imatinib 30 mg/kg IG + h-GS 100 mg/kg/day 21 days, vs imatinib only",↓ 16.1%*
same,decrease in t0.5,"rats, imatinib 30 mg/kg IG + h-GS 100 mg/kg/day 21 days, vs imatinib only, listed as imatinib",16.1%
same,decrease in t0.5,"rats, imatinib 30 mg/kg IG + h-GS and h-GT 100 mg/kg/day each 21 days, vs imatinib only",21.9%
same,decrease in t0.5,"rats, imatinib 30 mg/kg IG + h-GS and h-GT 100 mg/kg/day each 21 days, vs l-GS and l-GT group",23.1%
same,decrease in t0.5,"rats, imatinib 30 mg/kg IG + h-GT 100 mg/kg/day 21 days, vs imatinib only",↓ 15.8%*
same,decrease in t0.5,"rats, imatinib 30 mg/kg IG + h-GT 100 mg/kg/day 21 days, vs imatinib only, listed as imatinib",15.8%
same,increase in t0.5,"rats, imatinib 30 mg/kg IG + l-GS and l-GT 50 mg/kg/day each 21 days, vs l-GS group",1.1 fold
same,increase in t0.5,"rats, imatinib 30 mg/kg IG + l-GS and l-GT 50 mg/kg/day each 21 days, vs l-GT group",1.3 fold
same,Cmax,in vivo,6400 ± 3160 ng/mL
Cc1ccc(NC(=O)c2ccc(CN3CCNCC3)cc2)cc1Nc1nccc(-c2cccnc2)n1 [N-desmethyl imatinib],t0.5,[6],9.9 ± 4.4 h
same,tmax,[6],7.5 ± 1.0 h
same,MRT,[7],9.5 ± 1.0 h
same,t0.5,[7],7.1 ± 0.9 h
same,tmax,[7],4.7 ± 2.0 h
same,decrease in AUC0∞,[8],73.0%
same,decrease in Cmax,[8],67.8%
same,increase in CL/F,[8],3.7 fold
same,increase in Vz/F,[8],4.1 fold
same,decrease in AUC0∞,[9],58.5%
same,decrease in Cmax,[9],63.3%
same,increase in CL/F,[9],2.5 fold
same,increase in Vz/F,[9],2.9 fold
same,decrease in AUC0∞,[10],~ 2 fold
same,decrease in Cmax,[10],~ 2 fold
same,MRT,[11],11.9 ± 2.3 h
same,tmax,[11],4.8 ± 2.2 h
same,increase in t0.5,"metabolite, rats, imatinib 30 mg/kg IG + h-GS and h-GT 100 mg/kg/day each 21 days, vs h-GS group",1.5 fold
same,increase in t0.5,"metabolite, rats, imatinib 30 mg/kg IG + h-GS and h-GT 100 mg/kg/day each 21 days, vs h-GT group",1.4 fold
same,decrease in AUC0∞,[12],72.1%
same,decrease in Cmax,[12],71.5%
same,increase in CL/F,[12],5.3 fold
same,increase in Vz/F,[12],8.7 fold
same,increase in t0.5,[12],1.6 fold
same,decrease in AUC0∞,[13],75.8%
same,decrease in Cmax,[13],71.9%
same,increase in CL/F,[13],6.5 fold
same,increase in Vz/F,[13],8.8 fold
same,increase in t0.5,[13],1.3 fold
same,increase in the terminal half-life,"metabolite, rats, imatinib 30 mg/kg IG + h-GS and h-GT 100 mg/kg/day each 21 days, vs other high dose groups (h-GS or h-GT, not specified)",1.4 fold
same,MRT,[14],11.9 ± 2.6 h
same,tmax,[14],5.2 ± 2.6 h
same,Cmax,[15],408.8 ± 113.6 ng/mL
same,t0.5,[15],6.2 ± 0.5 h
same,tmax,[15],4.2 ± 1.0 h
same,tmax,"metabolite, rats, imatinib 30 mg/kg IG + l-GS and l-GT 50 mg/kg/day each 21 days",5.8 ± 2.6 h
same,effect on pharmacokinetics,"metabolite, rats, imatinib 30 mg/kg IG + l-GS and l-GT 50 mg/kg/day each 21 days, vs imatinib only",no significant effects; also recorded: not significantly affected
same,increase in AUC0∞,"metabolite, rats, imatinib 30 mg/kg IG + l-GS and l-GT 50 mg/kg/day each 21 days, vs l-GS group",1.8 fold
same,increase in AUC0∞,"metabolite, rats, imatinib 30 mg/kg IG + l-GS and l-GT 50 mg/kg/day each 21 days, vs l-GT group",6.1 fold
same,MRT,[16],11.2 ± 1.8 h
same,t0.5,[16],8.0 ± 0.7 h
same,tmax,[16],5.3 ± 1.6 h
same,AUC0∞,[17],7143.3 ± 2165.3 ng^.h/mL
same,Cmax,[17],465.6 ± 94.0 ng/mL
same,MRT,[17],11.6 ± 3.8 h
same,t0.5,[17],6.6 ± 0.5 h
same,tmax,[17],6.7 ± 2.1 h
same,differences in pharmacokinetic parameters,"metabolite, rats, imatinib 30 mg/kg IG, l-GT vs h-GT group",no significant differences
same,AUC0∞ metabolite/AUC0∞ drug percentage,[18],3.3%
same,Cmax (metabolite) /Cmax (drug) percentage,[18],3.4%
same,AUC0∞ metabolite/AUC0∞ drug percentage,[19],6.6%
same,Cmax (metabolite) /Cmax (drug) percentage,[19],6.0%
same,AUC0∞ metabolite/AUC0∞ drug percentage,[20],4.0%
same,Cmax (metabolite) /Cmax (drug) percentage,[20],3.6%
same,AUC0∞ metabolite/AUC0∞ drug percentage,[21],6.0%
same,Cmax (metabolite) /Cmax (drug) percentage,[21],5.3%
same,AUC0∞ metabolite/AUC0∞ drug percentage,[22],7.8%
same,Cmax (metabolite) /Cmax (drug) percentage,[22],7.9%
same,AUC0∞ metabolite/AUC0∞ drug percentage,[23],5.5%
same,Cmax (metabolite) /Cmax (drug) percentage,[23],5.0%
same,AUC0∞ metabolite/AUC0∞ drug percentage,[24],3.5%
same,Cmax (metabolite) /Cmax (drug) percentage,[24],3.2%
same,AUC0∞ metabolite/AUC0∞ drug percentage,[25],6.8%
same,Cmax (metabolite) /Cmax (drug) percentage,[25],7.3%
same,elimination half-life,[3],40 h
(−)-epicatechin-3-gallate [ECG],inhibition of estrone-3-sulfate uptake,OATP-B; concentration of 10 mM,66.6%
